Source: paper PMC8119466, “A screen of FDA-approved drugs identifies inhibitors of protein tyrosine phosphatase 4A3 (PTP4A3 or PRL-3)” (Scientific Reports, 2021)
Structures can show the parent of a compound that is named as a salt. Where two headings read alike, the source gives them in different places.

Legend:
Format in all cases: biochemical
recombinant PRL-3 = biological target: T1, recombinant PRL-3 (Homo sapiens, UniProt O75365); test: In vitro phosphatase assay (DiFMUP hydrolysis), PRL-3; note: test concentration or dose not given here
T1 construct: 6xHis (N, cleaved yes); made in house; host or cells: E. coli One Shot BL21 Star
T1 sequence (O75365 whole entry): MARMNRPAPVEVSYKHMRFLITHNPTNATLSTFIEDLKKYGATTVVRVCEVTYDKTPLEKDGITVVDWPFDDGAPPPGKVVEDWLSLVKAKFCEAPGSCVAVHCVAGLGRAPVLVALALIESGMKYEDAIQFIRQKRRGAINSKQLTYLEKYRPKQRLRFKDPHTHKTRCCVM

recombinant PRL-2 = biological target: T2, recombinant PRL-2 (Homo sapiens, UniProt Q12974); test: In vitro phosphatase assay (DiFMUP hydrolysis), PRL-2;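 note: PRL-2 activity read as DiFMUP hydrolysis after 20 min at room temperature with drug, enzyme first pre-reduced at 4 °C for 20 min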
T2 construct: 6xHis (N, cleaved yes); made in house; host or cells: E. coli One Shot BL21 Star
T2 sequence (Q12974 1-167): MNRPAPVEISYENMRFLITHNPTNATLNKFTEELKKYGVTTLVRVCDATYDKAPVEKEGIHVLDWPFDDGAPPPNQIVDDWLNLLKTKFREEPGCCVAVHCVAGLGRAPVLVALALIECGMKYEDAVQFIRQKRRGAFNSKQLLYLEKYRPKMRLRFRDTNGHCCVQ

recombinant PRL-1 = biological target: T3, recombinant PRL-1 (Homo sapiens, UniProt Q93096); test: In vitro phosphatase assay (DiFMUP hydrolysis), PRL-1; note: test concentration or dose not given here
T3 construct: 6xHis (N, cleaved yes); made in house; host or cells: E. coli One Shot BL21 Star
T3 sequence (Q93096 1-173): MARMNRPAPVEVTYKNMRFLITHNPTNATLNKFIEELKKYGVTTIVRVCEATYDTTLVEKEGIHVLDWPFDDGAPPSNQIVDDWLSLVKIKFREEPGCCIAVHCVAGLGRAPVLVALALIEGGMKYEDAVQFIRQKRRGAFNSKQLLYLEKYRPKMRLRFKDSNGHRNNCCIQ

[1] = FDA-approved drug screen, compared to DMSO

Compound | % Phosphatase Activity (compared to DMSO) PRL-3 (recombinant PRL-3; [1]) | % Phosphatase Activity (compared to DMSO) PRL-2 (recombinant PRL-2; [1]) | % Phosphatase Activity (compared to DMSO) PRL-1 (recombinant PRL-1; [1]) | % Phosphatase Activity (compared to DMSO) PRL-3 (recombinant PRL-3) | % Phosphatase Activity (compared to DMSO) PRL-2 (recombinant PRL-2) | % Phosphatase Activity (compared to DMSO) PRL-1 (recombinant PRL-1)
CCc1cc(/C(C)=N/OCc2ccc(C3CCCCC3)c(C(F)(F)F)c2)ccc1CN1CC(C(=O)O)C1 [BAF312 (Siponimod)] | 101% | 87% | 99% |  |  | 
Cc1ccc(-n2nc(C(C)(C)C)cc2NC(=O)Nc2ccc(OCCN3CCOCC3)c3ccccc23)cc1 [BIRB 796 (Doramapimod)] | 98% | 106% | 108% |  |  | 
Cc1nc(NC(=O)N2CCC[C@H]2C(N)=O)sc1-c1ccnc(C(C)(C)C(F)(F)F)c1 [BYL719] | 90% | 96% | 89% |  |  | 
Cc1ccc(NC(=O)c2ccc(CN3CC[C@H](N(C)C)C3)c(C(F)(F)F)c2)cc1Nc1nccc(-c2cncnc2)n1 [Bafetinib (INNO-406)] | 76% | 105% | 97% |  |  | 
CNC1CCCN(c2c(F)cc3c(=O)c(C(=O)O)cn(C4CC4)c3c2OC)C1 (stereo not drawn) [Balofloxacin] | 123% | 411% | 282% |  |  | 
CCN(CCO)CCCOc1ccc2c(Nc3cc(CC(=O)Nc4cccc(F)c4)[nH]n3)ncnc2c1 [Barasertib (AZD1152-HQPA)] | 76% | 95% | 91% |  |  | 
CNC(=O)[C@H](Cc1ccccc1)NC(=O)[C@H](CC(C)C)[C@H](CSc1cccs1)C(=O)NO [Batimastat (BB-94)] | 89% | 79% | 88% |  |  | 
CCC(=O)OCC(=O)[C@@]1(OC(=O)CC)[C@@H](C)C[C@H]2[C@@H]3CCC4=CC(=O)C=C[C@]4(C)[C@@]3(Cl)[C@@H](O)C[C@@]21C [Beclomethasone dipropionate] | 90% | 91% | 98% |  |  | 
O=C(/C=C/c1cccc(S(=O)(=O)Nc2ccccc2)c1)NO [Belinostat (PXD101)] | 80% | 104% | 98% |  |  | 
CCOC(=O)[C@H](CCc1ccccc1)N[C@H]1CCc2ccccc2N(CC(=O)O)C1=O [Benazepril HCl] | 78% | 80% | 91% |  |  | 
Cl.Cn1c(CCCC(=O)O)nc2cc(N(CCCl)CCCl)ccc21 [Bendamustine HCl] | 79% | 128% | 122% |  |  | 
NC(CO)C(=O)NNCc1ccc(O)c(O)c1O (stereo not drawn) [Benserazide HCl] | 68% | 99% | 103% |  |  | 
CCc1oc2ccccc2c1C(=O)c1cc(Br)c(O)c(Br)c1 [Benzbromarone] | 51% | 56% | 63% |  |  | 
CCOC(=O)c1ccc(N)cc1.Cl [Benzocaine hydrochloride] | 84% | 102% | 100% |  |  | 
CCOC(=O)c1ccc(N)cc1 [Benzocaine] | 84% | 98% | 87% |  |  | 
NS(=O)(=O)c1cc2c(cc1Cl)N=C(CSCc1ccccc1)NS2(=O)=O [Benzthiazide] | 99% | 115% | 111% |  |  | 
CN1[C@@H]2CC[C@H]1C[C@@H](OC(c1ccccc1)c1ccccc1)C2 [Benztropine mesylate] | 89% | 106% | 94% |  |  | 

Compound | % Phosphatase Activity (compared to DMSO) PRL-3 (recombinant PRL-3; [1]) | % Phosphatase Activity (compared to DMSO) PRL-2 (recombinant PRL-2; [1]) | % Phosphatase Activity (compared to DMSO) PRL-1 (recombinant PRL-1; [1]) | % Phosphatase Activity (compared to DMSO) PRL-3 (recombinant PRL-3) | % Phosphatase Activity (compared to DMSO) PRL-2 (recombinant PRL-2) | % Phosphatase Activity (compared to DMSO) PRL-1 (recombinant PRL-1)
CN(C)CCCOc1nn(Cc2ccccc2)c2ccccc12 [Benzydamine HCl] | 77% | 116% | 100% |  |  | 
OCc1ccccc1 [Benzyl alcohol] | 82% | 91% | 94% |  |  | 
O=C(OCc1ccccc1)c1ccccc1 [Benzyl benzoate] | 77% | 75% | 83% |  |  | 
C[N+](C)(CCOc1ccccc1)Cc1ccccc1.O=C([O-])c1cc2ccccc2cc1O [Bephenium Hydroxynaphthoate] | 92% | 103% | 108% |  |  | 
CNCCc1ccccn1.Cl.Cl [Betahistine 2HCl] | 87% | 96% | 93% |  |  | 
CCC(=O)OCC(=O)[C@@]1(OC(=O)CC)[C@@H](C)C[C@H]2[C@@H]3CCC4=CC(=O)C=C[C@]4(C)[C@@]3(F)[C@@H](O)C[C@@]21C [Betamethasone Dipropionate] | 84% | 83% | 92% |  |  | 
CCCCC(=O)O[C@]1(C(=O)CO)[C@@H](C)C[C@H]2[C@@H]3CCC4=CC(=O)C=C[C@]4(C)[C@@]3(F)[C@@H](O)C[C@@]21C [Betamethasone valerate (Betnovate)] | 79% | 83% | 97% |  |  | 
C[C@H]1C[C@H]2[C@@H]3CCC4=CC(=O)C=C[C@]4(C)[C@@]3(F)[C@@H](O)C[C@]2(C)[C@@]1(O)C(=O)CO [Betamethasone] | 72% | 88% | 95% |  |  | 
O=C(O)CCNC(=O)c1ccccc1 [Betamipron] | 75% | 95% | 98% |  |  | 
CC(C)NCC(O)COc1ccc(CCOCC2CC2)cc1.Cl (stereo not drawn) [Betaxolol hydrochloride (Betoptic)] |  |  |  | 97% | 99% | 84%
CC(C)NCC(O)COc1ccc(CCOCC2CC2)cc1 (stereo not drawn) [Betaxolol] |  |  |  | 80% | 124% | 109%
CC(C[N+](C)(C)C)OC(N)=O (stereo not drawn) [Bethanechol chloride] | 77% | 119% | 104% |  |  | 
C=C(c1ccc(C(=O)O)cc1)c1cc2c(cc1C)C(C)(C)CCC2(C)C [Bexarotene] | 58% | 89% | 81% |  |  | 
CC(C)(Oc1ccc(CCNC(=O)c2ccc(Cl)cc2)cc1)C(=O)O [Bezafibrate] | 90% | 119% | 123% |  |  | 
C[C@@H](O)[C@H]1C(=O)N2C(C(=O)[O-])=C(SC3Cn4cnc[n+]4C3)[C@H](C)[C@H]12 (stereo partly drawn) [Biapenem] | 93% | 74% | 100% |  |  | 
CC(O)(CS(=O)(=O)c1ccc(F)cc1)C(=O)Nc1ccc(C#N)c(C(F)(F)F)c1 (stereo not drawn) [Bicalutamide] | 99% | 108% | 118% |  |  | 
c1ccc(-c2ccc(C(c3ccccc3)n3ccnc3)cc2)cc1 (stereo not drawn) [Bifonazole] | 94% | 108% | 86% |  |  | 
